# From publication PMC5428509, “Irreversible inhibition of BTK kinase by a novel highly selective inhibitor CHMFL-BTK-11 suppresses inflammatory response in rheumatoid arthritis model” (Scientific Reports, 2017)
# Columns and labels:
# Experiment in all cases: biochemical
# Parameters in all cases: KinomeScan competition binding panel (DiscoveRx), percent of control at 1 uM
# Conditions in all cases: read-out: Percent Control
# [1] = target: T1, ABL1(M351T)-phosphorylated (Homo sapiens, UniProt P00519, M351T)
# T1 construct: phosphorylated
# Outline: (§1)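 KinomeScan technology used to profile binding across a panel of 456 kinases and mutants.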
# [2] = target: T2, ABL1(Y253F)-phosphorylated (Homo sapiens, UniProt P00519, Y253F)
# T2 construct: phosphorylated
# Outline: as §1
# ABL1-nonphosphorylated = target: T3, ABL1-nonphosphorylated (Homo sapiens, UniProt P00519)
# T3 construct: nonphosphorylated
# Outline: as §1
# AMPK-alpha2 = target: T4, AMPK-alpha2 (Homo sapiens, UniProt P54646)
# T4 construct: gene PRKAA2
# Outline: as §1
# BMX = BMX (Homo sapiens, UniProt P51813)
# Outline: as §1
# CSNK1G1 = CSNK1G1 (Homo sapiens, UniProt Q9HCP0)
# Outline: as §1
# EPHA7 = EPHA7 (Homo sapiens, UniProt Q15375)
# Outline: as §1
# ERBB2 = ERBB2 (Homo sapiens, UniProt P04626)
# Outline: as §1
# ERK1 = target: T5, ERK1 (Homo sapiens, UniProt P27361)
# T5 construct: gene MAPK3
# Outline: as §1
# FLT3 = FLT3 (Homo sapiens, UniProt P36888)
# Outline: as §1
# KIT(L576P) = KIT(L576P) (Homo sapiens, UniProt P10721, L576P)
# Outline: as §1
# MAPKAPK2 = MAPKAPK2 (Homo sapiens, UniProt P49137)
# Outline: as §1
# MARK3 = MARK3 (Homo sapiens, UniProt P27448)
# Outline: as §1
# MEK6 = target: T6, MEK6 (Homo sapiens, UniProt P52564)
# T6 construct: gene MAP2K6
# Outline: as §1
# MST2 = target: T7, MST2 (Homo sapiens, UniProt Q13188)
# T7 construct: gene STK3
# Outline: as §1
# MUSK = MUSK (Homo sapiens, UniProt O15146)
# Outline: as §1
# NDR2 = target: T8, NDR2 (Homo sapiens, UniProt Q9Y2H1)
# T8 construct: gene STK38L
# Outline: as §1
# NEK1 = NEK1 (Homo sapiens, UniProt Q96PY6)
# Outline: as §1
# NLK = NLK (Homo sapiens, UniProt Q9UBE8)
# Outline: as §1
# PAK2 = PAK2 (Homo sapiens, UniProt Q13177)
# Outline: as §1
# PIK3CA(E542K) = PIK3CA(E542K) (Homo sapiens, UniProt P42336, E542K)
# Outline: as §1
# PIK3CA(E545K) = PIK3CA(E545K) (Homo sapiens, UniProt P42336, E545K)
# Outline: as §1
# PIK3CD = PIK3CD (Homo sapiens, UniProt O00329)
# Outline: as §1
# STK36 = STK36 (Homo sapiens, UniProt Q9NRP7)
# Outline: as §1
# p38-beta = target: T9, p38-beta (Homo sapiens, UniProt Q15759)
# T9 construct: gene MAPK11
# Outline: as §1
# T6 sequence (P52564 whole entry): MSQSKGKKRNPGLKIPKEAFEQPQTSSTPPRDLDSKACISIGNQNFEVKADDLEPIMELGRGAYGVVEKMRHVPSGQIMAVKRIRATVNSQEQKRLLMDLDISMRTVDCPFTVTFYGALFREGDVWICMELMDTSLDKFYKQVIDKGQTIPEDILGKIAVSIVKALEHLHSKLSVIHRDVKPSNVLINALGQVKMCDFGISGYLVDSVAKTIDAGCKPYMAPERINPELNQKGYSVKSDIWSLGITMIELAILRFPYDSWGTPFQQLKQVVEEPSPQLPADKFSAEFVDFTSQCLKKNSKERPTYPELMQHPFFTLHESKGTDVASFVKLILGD
# PIK3CD, sequence (O00329 whole entry): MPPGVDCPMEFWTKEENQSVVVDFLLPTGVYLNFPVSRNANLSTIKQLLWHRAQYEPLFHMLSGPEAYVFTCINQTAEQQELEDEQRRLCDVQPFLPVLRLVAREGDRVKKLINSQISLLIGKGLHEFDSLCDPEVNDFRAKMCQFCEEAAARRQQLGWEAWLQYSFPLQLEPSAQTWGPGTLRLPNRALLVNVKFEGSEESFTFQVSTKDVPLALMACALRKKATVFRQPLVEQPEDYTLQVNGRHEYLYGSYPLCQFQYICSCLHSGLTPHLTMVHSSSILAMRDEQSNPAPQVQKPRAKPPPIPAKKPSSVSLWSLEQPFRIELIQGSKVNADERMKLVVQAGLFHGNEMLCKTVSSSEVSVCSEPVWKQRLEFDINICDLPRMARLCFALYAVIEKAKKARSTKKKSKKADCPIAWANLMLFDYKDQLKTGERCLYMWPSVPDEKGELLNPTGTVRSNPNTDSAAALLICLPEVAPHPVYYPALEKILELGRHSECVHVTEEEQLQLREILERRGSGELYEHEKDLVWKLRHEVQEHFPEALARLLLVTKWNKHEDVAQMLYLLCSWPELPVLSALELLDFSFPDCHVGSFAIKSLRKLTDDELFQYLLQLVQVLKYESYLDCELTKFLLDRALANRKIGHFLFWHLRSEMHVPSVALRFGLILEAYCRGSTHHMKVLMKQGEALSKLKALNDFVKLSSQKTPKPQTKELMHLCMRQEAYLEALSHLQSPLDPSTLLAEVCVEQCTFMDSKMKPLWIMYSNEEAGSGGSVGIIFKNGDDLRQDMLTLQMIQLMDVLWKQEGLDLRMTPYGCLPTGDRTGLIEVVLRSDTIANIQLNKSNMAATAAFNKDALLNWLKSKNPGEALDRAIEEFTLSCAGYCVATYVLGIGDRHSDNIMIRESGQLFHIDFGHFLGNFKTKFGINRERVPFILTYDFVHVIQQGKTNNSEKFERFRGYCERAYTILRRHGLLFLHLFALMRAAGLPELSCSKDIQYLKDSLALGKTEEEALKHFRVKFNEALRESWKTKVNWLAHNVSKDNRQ
# STK36, sequence (Q9NRP7 whole entry): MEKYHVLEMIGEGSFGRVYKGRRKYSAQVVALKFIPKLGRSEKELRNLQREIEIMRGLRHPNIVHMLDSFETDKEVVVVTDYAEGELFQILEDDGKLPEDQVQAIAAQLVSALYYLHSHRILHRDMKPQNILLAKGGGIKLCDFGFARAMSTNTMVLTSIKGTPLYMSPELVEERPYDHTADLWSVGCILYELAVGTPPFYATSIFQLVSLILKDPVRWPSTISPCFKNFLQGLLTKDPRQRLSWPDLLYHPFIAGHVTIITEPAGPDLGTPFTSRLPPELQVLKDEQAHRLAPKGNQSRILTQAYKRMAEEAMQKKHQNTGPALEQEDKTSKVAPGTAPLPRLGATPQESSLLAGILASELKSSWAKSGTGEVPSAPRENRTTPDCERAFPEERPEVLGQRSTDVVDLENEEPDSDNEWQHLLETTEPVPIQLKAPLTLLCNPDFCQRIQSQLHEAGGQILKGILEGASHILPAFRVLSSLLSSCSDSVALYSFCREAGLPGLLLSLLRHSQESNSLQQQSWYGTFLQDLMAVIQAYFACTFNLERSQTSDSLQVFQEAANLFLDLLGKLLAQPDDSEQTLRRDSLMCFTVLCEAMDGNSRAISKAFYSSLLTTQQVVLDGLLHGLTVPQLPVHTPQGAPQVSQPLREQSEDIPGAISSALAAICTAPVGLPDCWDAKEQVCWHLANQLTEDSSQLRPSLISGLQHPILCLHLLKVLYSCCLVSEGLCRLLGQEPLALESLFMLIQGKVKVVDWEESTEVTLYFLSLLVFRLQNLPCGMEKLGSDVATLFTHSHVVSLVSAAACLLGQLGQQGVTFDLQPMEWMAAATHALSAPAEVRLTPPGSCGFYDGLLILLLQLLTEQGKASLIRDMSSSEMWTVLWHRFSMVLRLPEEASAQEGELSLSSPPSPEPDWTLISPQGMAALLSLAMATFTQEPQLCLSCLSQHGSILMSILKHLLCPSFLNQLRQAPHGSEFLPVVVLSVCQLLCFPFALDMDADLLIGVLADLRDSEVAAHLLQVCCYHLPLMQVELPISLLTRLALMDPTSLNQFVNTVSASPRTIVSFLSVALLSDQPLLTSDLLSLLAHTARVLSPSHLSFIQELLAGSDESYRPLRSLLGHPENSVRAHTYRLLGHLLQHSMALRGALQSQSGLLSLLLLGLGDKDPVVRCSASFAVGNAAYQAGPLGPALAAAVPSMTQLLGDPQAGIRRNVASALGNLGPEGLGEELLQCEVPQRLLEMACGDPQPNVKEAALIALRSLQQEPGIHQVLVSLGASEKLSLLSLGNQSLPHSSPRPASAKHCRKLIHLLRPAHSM
# T7 sequence (Q13188 whole entry): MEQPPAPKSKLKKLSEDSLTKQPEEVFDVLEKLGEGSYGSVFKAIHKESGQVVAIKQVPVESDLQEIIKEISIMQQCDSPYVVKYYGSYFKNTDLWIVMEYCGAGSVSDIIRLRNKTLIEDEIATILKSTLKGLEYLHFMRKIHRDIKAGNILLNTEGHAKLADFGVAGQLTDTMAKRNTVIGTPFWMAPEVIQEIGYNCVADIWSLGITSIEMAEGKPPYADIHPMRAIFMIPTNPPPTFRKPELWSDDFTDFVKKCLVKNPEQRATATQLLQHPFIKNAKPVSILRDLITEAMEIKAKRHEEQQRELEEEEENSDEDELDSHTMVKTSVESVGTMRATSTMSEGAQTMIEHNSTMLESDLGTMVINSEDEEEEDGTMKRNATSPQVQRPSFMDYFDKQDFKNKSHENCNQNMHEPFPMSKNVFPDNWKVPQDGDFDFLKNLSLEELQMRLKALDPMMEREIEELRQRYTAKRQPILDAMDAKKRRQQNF
# PIK3CA(E545K), sequence (P42336 whole entry E545K): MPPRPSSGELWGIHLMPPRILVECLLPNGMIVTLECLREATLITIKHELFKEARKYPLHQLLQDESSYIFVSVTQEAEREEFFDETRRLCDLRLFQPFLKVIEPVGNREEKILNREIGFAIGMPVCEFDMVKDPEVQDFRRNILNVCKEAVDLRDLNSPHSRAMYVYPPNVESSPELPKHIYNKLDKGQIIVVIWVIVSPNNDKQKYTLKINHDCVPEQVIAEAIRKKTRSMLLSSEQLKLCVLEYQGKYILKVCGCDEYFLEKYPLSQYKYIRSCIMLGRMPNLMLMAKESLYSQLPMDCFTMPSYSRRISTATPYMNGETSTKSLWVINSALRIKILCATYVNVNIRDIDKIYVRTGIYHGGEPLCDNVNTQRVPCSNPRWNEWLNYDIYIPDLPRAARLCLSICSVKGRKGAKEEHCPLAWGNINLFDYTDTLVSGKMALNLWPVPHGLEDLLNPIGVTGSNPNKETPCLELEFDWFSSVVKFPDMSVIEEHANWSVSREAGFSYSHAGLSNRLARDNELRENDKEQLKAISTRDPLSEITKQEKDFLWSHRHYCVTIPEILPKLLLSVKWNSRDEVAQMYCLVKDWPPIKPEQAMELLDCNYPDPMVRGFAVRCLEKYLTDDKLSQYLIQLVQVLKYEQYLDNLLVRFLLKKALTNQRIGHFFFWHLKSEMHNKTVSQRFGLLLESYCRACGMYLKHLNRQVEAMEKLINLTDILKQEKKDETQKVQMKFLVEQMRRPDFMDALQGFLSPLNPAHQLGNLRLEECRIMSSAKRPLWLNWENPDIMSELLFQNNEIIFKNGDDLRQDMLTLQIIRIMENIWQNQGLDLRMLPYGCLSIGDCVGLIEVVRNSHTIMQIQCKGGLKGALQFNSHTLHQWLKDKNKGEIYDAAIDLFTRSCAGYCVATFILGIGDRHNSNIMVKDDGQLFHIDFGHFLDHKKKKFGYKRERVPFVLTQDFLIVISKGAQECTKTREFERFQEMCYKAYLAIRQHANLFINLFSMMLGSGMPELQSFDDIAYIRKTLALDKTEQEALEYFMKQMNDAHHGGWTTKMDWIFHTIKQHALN
# T5 sequence (P27361 whole entry): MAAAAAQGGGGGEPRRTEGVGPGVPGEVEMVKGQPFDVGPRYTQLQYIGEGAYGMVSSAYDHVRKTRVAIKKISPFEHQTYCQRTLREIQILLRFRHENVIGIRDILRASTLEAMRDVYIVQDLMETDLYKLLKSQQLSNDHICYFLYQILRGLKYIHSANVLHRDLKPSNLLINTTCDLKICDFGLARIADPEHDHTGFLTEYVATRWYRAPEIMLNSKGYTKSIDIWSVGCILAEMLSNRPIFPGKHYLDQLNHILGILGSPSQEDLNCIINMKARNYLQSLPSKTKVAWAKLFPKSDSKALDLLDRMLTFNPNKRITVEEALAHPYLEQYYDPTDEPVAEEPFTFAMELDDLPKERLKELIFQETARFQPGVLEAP
# CSNK1G1, sequence (Q9HCP0 whole entry): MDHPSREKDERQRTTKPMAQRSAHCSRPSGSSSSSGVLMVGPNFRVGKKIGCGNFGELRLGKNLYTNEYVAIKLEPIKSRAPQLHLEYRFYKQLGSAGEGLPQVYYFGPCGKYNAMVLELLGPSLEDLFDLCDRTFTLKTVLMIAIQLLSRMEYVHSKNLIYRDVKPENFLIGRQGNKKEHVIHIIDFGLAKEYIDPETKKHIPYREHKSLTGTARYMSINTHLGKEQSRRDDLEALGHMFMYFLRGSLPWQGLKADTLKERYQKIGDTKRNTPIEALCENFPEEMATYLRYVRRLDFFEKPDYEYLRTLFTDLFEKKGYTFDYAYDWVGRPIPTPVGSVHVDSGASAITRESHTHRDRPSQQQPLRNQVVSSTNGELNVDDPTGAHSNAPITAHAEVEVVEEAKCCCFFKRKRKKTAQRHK
compound,measurement,setting,value
C=CC(=O)Nc1cc(-n2c(=O)ccc3cnc4ccc(-n5cccn5)cc4c32)ccc1C [CHMFL-BTK-11],remaining binding at 1 µM,[1],72%
same,remaining binding at 1 µM,[2],89%
same,remaining binding at 1 µM,ABL1-nonphosphorylated,74%
same,remaining binding at 1 µM,AMPK-alpha2,86%
same,remaining binding at 1 µM,BMX,23%
same,remaining binding at 1 µM,CSNK1G1,100%
same,remaining binding at 1 µM,EPHA7,97%
same,remaining binding at 1 µM,ERBB2,98%
same,remaining binding at 1 µM,ERK1,100%
same,remaining binding at 1 µM,FLT3,100%
same,remaining binding at 1 µM,KIT(L576P),100%
same,remaining binding at 1 µM,MAPKAPK2,99%
same,remaining binding at 1 µM,MARK3,100%
same,remaining binding at 1 µM,MEK6,79%
same,remaining binding at 1 µM,MST2,97%
same,remaining binding at 1 µM,MUSK,100%
same,remaining binding at 1 µM,NDR2,99%
same,remaining binding at 1 µM,NEK1,82%
same,remaining binding at 1 µM,NLK,100%
same,remaining binding at 1 µM,PAK2,99%
same,remaining binding at 1 µM,PIK3CA(E542K),91%
same,remaining binding at 1 µM,PIK3CA(E545K),69%
same,remaining binding at 1 µM,PIK3CD,100%
same,remaining binding at 1 µM,STK36,97%
same,remaining binding at 1 µM,p38-beta,100%
